This note sets out measurements from a melting point compilation (Tetko et al.).

The structures appear in SMILES notation.

One may read the melting point as the temperature of the solid-liquid transition. `Cc1ccccc1-c1csc(=O)[nH]1`: the melting point was in the range of 123 to 125 °C.

`O=C(O)CCOc1ccc(Br)cc1F` gave a melting point of 91 to 93 °C.

In the case of `Cc1n[nH]c(=O)c(C(=O)O)c1C`, the melting point lay within 179 to 181 °C.

In turn, `CC(C)(C)NS(=O)(=O)Cc1cccc(N)c1` yielded a melting point of 101 to 103 °C.

Compound `N#CCCCS(N)(=O)=O` registered a melting point of 49 to 51 °C.

Take `Cc1nn(Cc2ccc(F)cc2)c(Cl)c1C=O`: the melting point is 49 to 51 °C.

On to `CC(C)(C(N)=O)c1ccc(N)cc1`, for which the melting point was in the range of 122 to 124 °C.

With `N#Cc1ccc(Oc2cccnc2)cc1`, the melting point was 50 to 52 °C.

`OCCOc1ccc(O)cc1` gave a melting point of 86 to 88 °C.

Consider `CS(=O)(=O)c1ccc(C(=O)NN)cc1`, for which the melting point lay in the range of 189 to 191 °C.

For `COC(=O)c1cncnc1O`, the melting point fell in the range of 201 to 203 °C.

In turn, `CCCc1ccc(-c2ccc(N)cc2)cc1` had a melting point of 64 to 66 °C.

In the case of `ON=Cc1ccc(N2CCOCC2)cc1`, the melting point is 186 to 188 °C.

Compound `Nc1ccc(-n2cnc3ccccc32)cc1` yielded a melting point of 104 to 106 °C.

Regarding `Nc1cc(=O)[nH]n1-c1ccc(F)cc1`, the melting point was in the range of 202 to 204 °C.

In the case of `NC(=S)c1cccc(C(F)(F)F)c1`, the melting point lay in the range of 66 to 68 °C.

Compound `NNC(=O)C(=O)NC1CC1` came in with a melting point of 181 to 183 °C.

In turn, `O=C(O)c1cc(I)cc([N+](=O)[O-])c1` registered a melting point of 167 to 169 °C.

Compound `CC(=O)N1CCCCC1C(=O)O` (configuration not stated) had a melting point of 137 to 139 °C.

In the case of `Cc1ccsc1C1CC1C(=O)O` (configuration not stated), the melting point fell in the range of 58 to 60 °C.

For `O=C1OCCN1c1ccc(O)cc1`, the melting point fell in the range of 177 to 179 °C.

The compound `Cc1sc2[nH]c(-c3ccc(Cl)nc3)nc(=N)c2c1C` showed a melting point of 133 to 135 °C.

As to `O=C(O)c1cc2ccccc2c2cccnc12`, the melting point lay within 200 to 202 °C.

`CC(C)OC(=O)NNC(=O)CCl` gave a melting point of 100 to 102 °C.

Turning to `Nc1ccc(CNC(=O)c2ccc(Br)cc2)cc1`, the melting point was 173 to 175 °C.

As to `Nc1cccc(S(=O)(=O)N2CCCCCC2)c1`, the melting point was in the range of 73 to 77 °C.

Take `COc1cc(Br)cc(F)c1C#N`: the melting point is 75 to 77 °C.

As to `NCc1ccc(N2CCOC2=O)cc1`, the melting point was in the range of 94 to 96 °C.

`Cc1cc(S(N)(=O)=O)cc(NC(=O)CCl)c1C` displayed a melting point of 210 to 212 °C.

Regarding `CN(c1ccc(C(=N)N)cc1)C1CCCCC1`, the melting point lay in the range of 122 to 124 °C.

Compound `CCN(CC)S(=O)(=O)c1ccc(N2CCCC2)c(C(=O)O)c1` returned a melting point of 141 to 144 °C.

Turning to `CCOc1ccc(OCC(=O)O)cc1`, the melting point lay within 125 to 130 °C.

In turn, `Cc1cc(N)nc(Cl)n1` returned a melting point of 220 to 222 °C.

`COC(=O)c1sc2cccc(F)c2c1CBr` returned a melting point of 157 to 159 °C.

As to `CC(C)Nc1cccc(O)c1`, the melting point lay in the range of 95 to 97 °C.

As to `Cc1ccc(-n2nc(C)c(CC(=O)O)c2C)cc1Cl`, the melting point is 146 to 148 °C.

`O=C1NC2(CCCC2)C(=O)N1Cc1ccc(Cl)nc1` showed a melting point of 169 to 171 °C.

Consider `O=[N+]([O-])c1sccc1Br`, for which the melting point lay within 80 to 82 °C.

As for `O=S(=O)(Cl)c1ccc(Br)c(C(F)(F)F)c1`, the melting point was 29 to 31 °C.

Turning to `CC1Oc2ccccc2OC1C(=O)O` (configuration not stated), the melting point was in the range of 106 to 108 °C.

The compound `O=S(=O)(Cl)c1cn[nH]c1` had a melting point of 99 to 101 °C.

For `CC(C)c1ccc(-c2ncc(CSc3nnc(N)[nH]3)s2)cc1`, the melting point is 168 to 170 °C.

In turn, `NC(=S)NCc1ccccc1` returned a melting point of 163 to 165 °C.

The compound `NC(=O)NC(=O)C(Cl)c1ccccc1` (configuration not stated) showed a melting point of 170 to 172 °C.

In turn, `COc1ccccc1C(=O)Nc1ccc(O)cc1` had a melting point of 172 to 174 °C.

`COc1cc(C(=O)O)cc(N)c1OC`: the melting point fell in the range of 135 to 137 °C.

The compound `Cc1cc(C)cc(C2(C(=O)O)CC2)c1` came in with a melting point of 164 to 166 °C.

In the case of `O=C(CCCl)Nc1ccccc1[N+](=O)[O-]`, the melting point was 86 to 88 °C.

As to `CCOc1cc(N)c(Br)cc1OCC`, the melting point lay within 50 to 52 °C.

For the compound `OC(CNC1CC1)c1ccc(F)cc1` (configuration not stated), the melting point was in the range of 84 to 86 °C.

Take `CC1CC(C)(C)CC2(C1)NC(=O)NC2=O` (configuration not stated): the melting point lay in the range of 273 to 275 °C.

`Cc1cc(C(=O)O)c(C)n1-c1ccc2c(c1)OCCO2`: the melting point was 204 to 206 °C.

For the compound `O=C(CCl)c1ccc(CC(=O)N2CCOCC2)s1`, the melting point is 136 to 138 °C.

Consider `CCN1CCc2nc3ccccc3c(C(=O)O)c2C1`, for which the melting point lay within 278 to 280 °C.

In turn, `CN(C)C(=O)c1ccc(Cl)c(S(N)(=O)=O)c1` displayed a melting point of 130 to 132 °C.

The compound `CCCOc1ccc(C(=O)O)cc1OC` showed a melting point of 182 to 184 °C.

On to `COc1ccc(/C=C/C(=O)O)c(OC)c1`, for which the melting point is 192 to 194 °C.

For the compound `O=C(CCl)Nc1cc(Cl)ccc1C(=O)O`, the melting point is 152 to 154 °C.

`O=C1CC(C2CC2)CN1` (configuration not stated) gave a melting point of 99 to 101 °C.

Consider `Nc1nnc(C=Cc2ccco2)s1`, for which the melting point was 218 to 220 °C.

`CC(Cl)C(=O)NCC(F)(F)F` (configuration not stated) displayed a melting point of 42 to 44 °C.

As to `Fc1ccc(-n2nccc2Br)cc1`, the melting point fell in the range of 73 to 75 °C.

`CCN(C(C)=O)C(C(=O)O)c1ccc(F)c(F)c1` (configuration not stated) registered a melting point of 205 to 207 °C.

For the compound `CC(=O)c1ccc(NS(C)(=O)=O)cc1`, the melting point fell in the range of 155 to 157 °C.

Compound `Cc1c(C(=O)O)c(=O)oc2ccc(Br)cc12` came in with a melting point of 179 to 181 °C.

`O=C(O)c1cc(S(=O)(=O)NCc2ccccn2)c(Cl)cc1Cl`: the melting point is 231 to 233 °C.

`CCOc1ccc(C2(O)CCCC2)cc1` yielded a melting point of 88 to 90 °C.

`O=C(O)c1cccnc1-n1cnc2ccccc21` yielded a melting point of 249 to 251 °C.

Take `Cc1ccc(SCCC(=O)O)cc1`: the melting point lay in the range of 71 to 73 °C.

The compound `CN(C)c1cc(C#N)c2ccccc2n1` displayed a melting point of 119 to 121 °C.

`NC(=O)NC1CC1` yielded a melting point of 114 to 116 °C.

Compound `O=c1[nH]c(=O)n(Cc2ccccc2)c2ncn(C3CCCC3)c12` had a melting point of 252 to 254 °C.

Consider `CCCS(N)(=O)=O`, for which the melting point lay in the range of 47 to 49 °C.

As for `CCOC(=O)Cc1ccc(F)cc1`, the melting point was in the range of 29 to 31 °C.

`CC(Cl)C(=O)Nc1cccc(Cl)c1Cl` (configuration not stated) gave a melting point of 96 to 98 °C.

On to `Cc1nnc(-c2cccc(N)c2)o1`, for which the melting point lay within 136 to 138 °C.

In turn, `O=C(c1cccnc1Cl)N1CCCCC1` showed a melting point of 67 to 69 °C.

Regarding `OCc1nnc(Cc2ccccc2Br)[nH]1`, the melting point lay in the range of 99 to 101 °C.

Compound `CC(C)(C)c1ccc(C2(C(=O)O)CCCCC2)cc1` came in with a melting point of 160 to 162 °C.

In the case of `COc1ccc2oc(C=O)cc2c1`, the melting point lay within 59 to 61 °C.

Compound `COc1cn(-c2ccccc2)nc1C(=O)O` yielded a melting point of 144 to 148 °C.

`O=Cc1ccc(-c2cccc(Cl)c2Cl)o1` returned a melting point of 94 to 98 °C.

For the compound `Nc1c(Cl)ncnc1N1CCCC1`, the melting point lay within 103 to 105 °C.

`CC1CCCCC1NC(=O)NC(=O)CCl` (configuration not stated) returned a melting point of 126 to 128 °C.

In turn, `CNC(=Nc1cc(C)nn1-c1ccccc1)c1ccc(F)cc1` gave a melting point of 227 to 228 °C.

Turning to `O=[N+]([O-])c1ccc(C2CN=C(Nc3ccccc3)S2)cc1` (configuration not stated), the melting point was in the range of 136 to 138 °C.

Regarding `Cc1csc(Sc2ccc(N)c(C)c2)n1`, the melting point fell in the range of 61 to 63 °C.

Take `Cc1[nH]nc(C(=O)O)c1S(=O)(=O)Cl`: the melting point lay in the range of 150 to 152 °C.

Take `O=C1CCCC1c1ccc(Cl)c(Cl)c1` (configuration not stated): the melting point was in the range of 63 to 65 °C.

`N#Cc1ccc(-n2cc(C#N)c(N)n2)c(F)c1` displayed a melting point of 258 to 260 °C.

`Cn1cc(-c2csc(N)n2)cn1`: the melting point lay in the range of 230 to 232 °C.

The compound `O=C(O)Cc1ccc([N+](=O)[O-])cc1Cl` had a melting point of 157 to 159 °C.

Compound `[N-]=[N+]=Nc1ccc(Cl)cc1Cl` gave a melting point of 52 to 54 °C.

`COc1cc(S(=O)(=O)Cl)ccc1Br`: the melting point was in the range of 65 to 67 °C.

Compound `O=C(O)/C=C/c1ccc(F)cc1[N+](=O)[O-]` came in with a melting point of 176 to 178 °C.

Regarding `Nc1ncncc1-c1ccc(Cl)cc1`, the melting point was 195 to 197 °C.

Consider `O=Cc1cnc2cnccn12`, for which the melting point lay in the range of 178 to 180 °C.

Compound `NCc1ccccc1CN1C(=O)NC2(CCCCC2)C1=O` yielded a melting point of 141 to 143 °C.

As for `Cc1cc(C(=O)O)nn1-c1ccc(Br)cc1`, the melting point was in the range of 211 to 213 °C.

The compound `O=C(O)c1ccc(F)cc1OC(F)F` displayed a melting point of 115 to 117 °C.

As to `O=C(O)c1cnn(-c2ncccc2Cl)c1C(F)(F)F`, the melting point is 149 to 151 °C.

For the compound `Nc1noc(C2CC2)n1`, the melting point is 84 to 86 °C.

For the compound `O=c1cc(C(F)(F)F)[nH]c(=O)[nH]1`, the melting point lay in the range of 210 to 212 °C.

`O=S(=O)(c1ccc(S)nc1)N1CCOCC1` registered a melting point of 71 to 73 °C.

As for `Sc1nc2cc(Cl)cnc2[nH]1`, the melting point lay in the range of 352 to 354 °C.

Consider `CC(C)(C)OC(=O)NC1(CO)CC1`, for which the melting point lay in the range of 75 to 77 °C.

Compound `CCOC(=O)c1c(CBr)oc2ccccc12` displayed a melting point of 84 to 86 °C.

Compound `O=C(O)/C=C/c1ccc2c(c1)CCO2` yielded a melting point of 175 to 177 °C.

With `O=[N+]([O-])C=Cc1ccc(F)cc1F`, the melting point is 55 to 57 °C.

In turn, `O=C(O)c1cc(S(=O)(=O)Cl)c(F)cc1F` returned a melting point of 129 to 131 °C.

Compound `CC(Oc1ccc(F)c(F)c1)C(=O)O` (configuration not stated) registered a melting point of 39 to 41 °C.

Take `N#Cc1ccnc(OC2CCC2)c1`: the melting point lay within 39 to 41 °C.

The compound `Nc1cccc(S(=O)(=O)Nc2ccccc2C(=O)O)c1` showed a melting point of 198 to 200 °C.

In the case of `O=C(O)CCC1NC(=O)N(c2ccc(Cl)c(Cl)c2)C1=O` (configuration not stated), the melting point was in the range of 173 to 175 °C.

Regarding `CC(C)C(NC(=O)Cc1ccccc1)C(=O)O` (configuration not stated), the melting point lay in the range of 110 to 112 °C.

The compound `O=C(O)c1cc([N+](=O)[O-])c(F)cc1Cl` registered a melting point of 151 to 153 °C.

`Nc1nc2c(ccc3ccccc32)s1`: the melting point lay within 134 to 136 °C.

In turn, `O=Cc1ccc(OC(F)(F)C(=O)O)cc1` showed a melting point of 146 to 148 °C.

For the compound `COc1ncc(Br)cn1`, the melting point lay in the range of 55 to 60 °C.

As for `Cc1cc(C2CCCNC2)n[nH]1` (configuration not stated), the melting point lay within 104 to 106 °C.

In the case of `O=S(=O)(Cl)c1ccc(C2CCCCC2)cc1`, the melting point was in the range of 49 to 51 °C.

On to `Cc1c(C(=O)O)oc2cc3c(cc12)CCC3`, for which the melting point lay within 265 to 267 °C.
